Source: ChEMBL document CHEMBL5291721, “A preclinical secondary pharmacology resource illuminates target-adverse drug reaction associations of marketed drugs” (Nat Commun, 2023)

How the values were obtained:
B2 bradykinin receptor = biological target: T1, B2 bradykinin receptor (Homo sapiens, UniProt P30411)
T1 sequence (P30411 whole entry): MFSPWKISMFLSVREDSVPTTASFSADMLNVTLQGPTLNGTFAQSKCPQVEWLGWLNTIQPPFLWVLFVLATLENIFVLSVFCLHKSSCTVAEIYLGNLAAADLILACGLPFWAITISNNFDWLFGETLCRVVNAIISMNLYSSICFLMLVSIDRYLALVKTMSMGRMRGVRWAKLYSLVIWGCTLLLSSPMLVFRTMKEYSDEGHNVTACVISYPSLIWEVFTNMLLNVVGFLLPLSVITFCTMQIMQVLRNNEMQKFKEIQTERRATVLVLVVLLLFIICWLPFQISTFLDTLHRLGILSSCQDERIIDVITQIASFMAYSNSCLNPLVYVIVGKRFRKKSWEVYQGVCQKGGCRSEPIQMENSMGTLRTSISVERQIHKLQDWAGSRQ

[1] = biological target: T2, Cholecystokinin receptor type A (Homo sapiens, UniProt P32238)
T2 sequence (P32238 whole entry): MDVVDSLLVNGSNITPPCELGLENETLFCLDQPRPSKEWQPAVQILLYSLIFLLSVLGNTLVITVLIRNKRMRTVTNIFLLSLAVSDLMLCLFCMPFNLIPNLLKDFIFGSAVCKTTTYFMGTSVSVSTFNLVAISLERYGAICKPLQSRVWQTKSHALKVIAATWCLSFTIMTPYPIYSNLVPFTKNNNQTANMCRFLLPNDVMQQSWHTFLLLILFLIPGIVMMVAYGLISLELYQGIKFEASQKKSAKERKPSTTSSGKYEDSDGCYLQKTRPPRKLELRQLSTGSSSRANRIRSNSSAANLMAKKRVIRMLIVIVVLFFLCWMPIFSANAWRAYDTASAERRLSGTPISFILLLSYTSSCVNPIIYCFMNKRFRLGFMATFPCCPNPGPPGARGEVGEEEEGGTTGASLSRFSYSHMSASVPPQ

D(1A) dopamine receptor = D(1A) dopamine receptor (Homo sapiens, UniProt P21728); assay type: functional, cell-based
[2] = biological target: T3, 5-hydroxytryptamine receptor 1A (Homo sapiens, UniProt P08908); assay type: functional, cell-based
T3 sequence (P08908 whole entry): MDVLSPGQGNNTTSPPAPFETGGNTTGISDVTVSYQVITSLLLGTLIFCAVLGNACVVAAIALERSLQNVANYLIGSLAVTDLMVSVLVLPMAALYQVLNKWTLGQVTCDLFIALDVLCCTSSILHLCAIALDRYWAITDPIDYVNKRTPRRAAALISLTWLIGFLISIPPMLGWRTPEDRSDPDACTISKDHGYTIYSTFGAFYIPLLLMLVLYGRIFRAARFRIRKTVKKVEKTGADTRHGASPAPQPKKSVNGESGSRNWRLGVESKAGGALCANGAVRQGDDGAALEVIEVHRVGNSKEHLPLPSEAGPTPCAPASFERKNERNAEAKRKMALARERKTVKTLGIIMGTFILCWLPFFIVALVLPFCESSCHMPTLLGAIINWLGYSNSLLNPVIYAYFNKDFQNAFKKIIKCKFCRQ

[3] = biological target: 5-hydroxytryptamine receptor 2B (Homo sapiens, UniProt P41595); assay type: functional, cell-based
Progesterone receptor = biological target: T4, Progesterone receptor (Homo sapiens, UniProt P06401); assay type: functional
T4 sequence (P06401 whole entry): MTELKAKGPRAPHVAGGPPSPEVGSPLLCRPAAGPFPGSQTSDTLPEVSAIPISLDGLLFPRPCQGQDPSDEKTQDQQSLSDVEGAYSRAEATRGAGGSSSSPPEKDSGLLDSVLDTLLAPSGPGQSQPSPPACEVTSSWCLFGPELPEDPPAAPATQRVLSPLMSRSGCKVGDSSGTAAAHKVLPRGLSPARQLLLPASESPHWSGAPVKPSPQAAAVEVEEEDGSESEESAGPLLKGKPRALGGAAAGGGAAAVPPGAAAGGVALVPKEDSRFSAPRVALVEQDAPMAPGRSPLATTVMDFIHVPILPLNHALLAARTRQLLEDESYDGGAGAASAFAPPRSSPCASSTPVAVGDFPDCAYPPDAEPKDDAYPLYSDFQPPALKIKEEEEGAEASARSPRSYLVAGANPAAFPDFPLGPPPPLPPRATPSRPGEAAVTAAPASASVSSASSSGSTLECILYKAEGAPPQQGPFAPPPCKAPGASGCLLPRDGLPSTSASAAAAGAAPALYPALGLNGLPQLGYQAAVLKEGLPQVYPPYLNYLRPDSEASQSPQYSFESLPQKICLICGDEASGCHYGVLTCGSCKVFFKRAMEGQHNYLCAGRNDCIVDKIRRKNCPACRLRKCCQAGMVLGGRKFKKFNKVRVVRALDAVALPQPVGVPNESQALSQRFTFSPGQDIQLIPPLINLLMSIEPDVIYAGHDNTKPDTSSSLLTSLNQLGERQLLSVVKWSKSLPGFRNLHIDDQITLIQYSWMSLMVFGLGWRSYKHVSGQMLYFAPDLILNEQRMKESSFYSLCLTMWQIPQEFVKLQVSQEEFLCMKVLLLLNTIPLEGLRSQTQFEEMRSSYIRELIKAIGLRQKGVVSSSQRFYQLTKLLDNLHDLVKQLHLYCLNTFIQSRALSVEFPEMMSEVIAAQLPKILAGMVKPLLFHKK

[4] = biological target: T5, Equilibrative nucleoside transporter 1 (Homo sapiens, UniProt Q99808)
T5 sequence (Q99808 whole entry): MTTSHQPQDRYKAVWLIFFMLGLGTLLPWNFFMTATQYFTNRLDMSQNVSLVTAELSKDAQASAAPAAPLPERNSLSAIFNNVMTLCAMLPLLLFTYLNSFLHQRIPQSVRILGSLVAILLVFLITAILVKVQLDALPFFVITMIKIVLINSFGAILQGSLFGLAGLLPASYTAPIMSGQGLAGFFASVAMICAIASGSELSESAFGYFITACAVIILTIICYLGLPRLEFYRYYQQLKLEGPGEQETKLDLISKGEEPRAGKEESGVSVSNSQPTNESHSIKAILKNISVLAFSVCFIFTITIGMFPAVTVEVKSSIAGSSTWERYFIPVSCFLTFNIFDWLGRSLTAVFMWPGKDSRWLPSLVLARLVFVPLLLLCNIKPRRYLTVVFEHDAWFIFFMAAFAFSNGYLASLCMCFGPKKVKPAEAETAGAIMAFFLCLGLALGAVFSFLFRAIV

Measured: AC50
Further: assay procedure not described here.

Sequence of 5-hydroxytryptamine receptor 2B (P41595 whole entry): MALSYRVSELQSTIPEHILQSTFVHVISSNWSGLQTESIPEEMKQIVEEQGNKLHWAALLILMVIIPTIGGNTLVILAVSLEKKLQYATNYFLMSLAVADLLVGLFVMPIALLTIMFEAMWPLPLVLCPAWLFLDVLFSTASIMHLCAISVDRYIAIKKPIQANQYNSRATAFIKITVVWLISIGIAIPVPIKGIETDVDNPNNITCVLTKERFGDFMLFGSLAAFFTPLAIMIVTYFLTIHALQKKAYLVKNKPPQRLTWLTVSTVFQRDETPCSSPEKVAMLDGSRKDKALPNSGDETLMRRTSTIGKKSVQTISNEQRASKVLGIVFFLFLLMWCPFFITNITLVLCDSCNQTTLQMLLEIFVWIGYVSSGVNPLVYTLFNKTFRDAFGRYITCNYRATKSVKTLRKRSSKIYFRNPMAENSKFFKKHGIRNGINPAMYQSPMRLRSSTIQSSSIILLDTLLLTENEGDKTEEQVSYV
Sequence of D(1A) dopamine receptor (P21728 whole entry): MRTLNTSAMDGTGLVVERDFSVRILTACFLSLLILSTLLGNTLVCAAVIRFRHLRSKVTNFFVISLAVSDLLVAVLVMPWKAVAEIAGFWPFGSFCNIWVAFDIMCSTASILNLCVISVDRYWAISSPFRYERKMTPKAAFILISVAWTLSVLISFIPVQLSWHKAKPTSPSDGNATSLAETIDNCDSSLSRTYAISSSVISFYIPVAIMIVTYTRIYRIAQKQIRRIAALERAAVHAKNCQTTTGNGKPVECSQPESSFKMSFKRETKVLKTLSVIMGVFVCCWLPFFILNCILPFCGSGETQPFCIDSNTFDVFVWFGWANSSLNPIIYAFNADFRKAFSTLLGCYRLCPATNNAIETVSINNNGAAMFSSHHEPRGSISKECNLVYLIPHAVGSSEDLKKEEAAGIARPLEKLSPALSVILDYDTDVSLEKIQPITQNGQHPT

Nc1nc(Cl)nc2c1ncn2[C@H]1C[C@H](O)[C@@H](CO)O1 [CLADRIBINE]
> 30 µM: all assays above
